Data taken from PMC6382862 (Scientific Reports, 2019).
Several values for one entry are separate records, joined by “and”; a condition that tells them apart may be missing. Equal values may be shown once.

What was measured:
PCSK9 = system: PCSK9; set-up: method as in PMID 28825733; conditions: lower affinity than Pep2-8, still detectable by SPR; cited from earlier work
HepG2 cells = experiment: Fluorescent LDL uptake cell based assay in PCSK9-treated HepG2 cells; set-up: species or system human; conditions: for Times more active than Pep2-8 in restoring LDL uptake: compared with 50 µM Pep2-8; for LDL-uptake restored (versus untreated cells): then LDL-DyLight 550 2 h, PCSK9 alone reduced uptake by 32.7%, mean of three independent experiments
Procedure: (§1) The HepG2 cell line was cultured in DMEM high glucose with stable L-glutamine supplemented with 10% FBS, 100 U/mL penicillin, 100.0 µg/mL streptomycin and incubated at 37 °C under 5% CO2 atmosphere. HepG2 cells were used for no more than 20 passages after thawing, because the increase of the number of passages may change the cell characteristics and impair assay results.
HepG2 cells (3.0 × 10^4/well) were seeded in black 96-well plates and kept in complete growth medium for 2 d before treatment. The third day, they were treated with 4.0 μg/mL PCSK9 and 4.0 μg/mL PCSK9 + peptides (0.5-50.0 µM), and vehicle (H2O) for 2 h with at 37 °C under 5% CO2 atmosphere. At the end of the treatments, the culture medium was replaced with 50.0 μl/well LDL-DyLight™ 550 working solution (Cayman Chemical Company, Ann Arbor, MI, US). The cells were additionally incubated for 2 h at 37 °C and then the culture medium was aspirated and replaced with PBS (100.0 μl/well). The degree of LDL uptake was measured using the Synergy H1 fluorescent plate reader from Biotek (excitation and emission wavelengths 540 and 570 nm, respectively).

[1] = system: LDLR protein level on HepG2 cell surface; experiment: In cell western (ICW) assay of LDLR protein level on HepG2 cell surface in presence of PCSK9; assay type: cell-based, human; conditions: PCSK9 alone decreased LDLR by 37.62%, mean of three independent experiments
Procedure: This reliable technique was used to investigate the effects of the mutated peptides on the modulation of the LDLR protein levels localized on the HepG2 cell surface. Taking this into consideration, to evaluate only the LDLR surface levels no permeabilization step was included in the applied procedure.
as §1
A total of 3.0 × 10^4 HepG2 cells/well were seeded in 96-well plates, respectively. The following day, cells were washed with PBS and then starved overnight (O/N) in DMEM without FBS.
Treated HepG2 cells were fixed in 4% paraformaldehyde for 20 min at room temperature (RT). Cells were washed 5 times with 100.0 µL of PBS/well (each wash was for 5 min at RT) and the endogenous peroxides activity was quenched adding 3% H2O2 in PBS for 20 min at RT. Non-specific sites were blocked with 100.0 µL/well of 5% BSA in PBS for 1.5 h at RT. LDLR primary antibody solution (1:3000 in 5% BSA in PBS, 25 µL/well) was incubated O/N at 4 °C. Subsequently, the primary antibody solution was discarded and each sample was washed 5 times with 100.0 µL/well of PBS (each wash was for 5 min at RT). Goat anti-rabbit Ig-HRP secondary antibody solution (1:6000 in 5% BSA in PBS, 50.0 µL/well) was added and incubated for 1 h at RT. The secondary antibody solution was washed 5 times with 100.0 µL/well of PBS (each wash for 5 min at RT). Freshly prepared TMB substrate (100.0 µL/well), was added and the plate was incubated at room temperature (RT) until desired color was developed. The reaction was then stopped with 2 M H2SO4 and the absorbance at 450 nm was measured using the Synergy H1 fluorescent plate reader from Biotek. Cells were stained by adding 1 × Janus green stain, incubating for 5 min at RT. The dye was removed and the sample washed 5 times with water. Afterward 0.1 mL 0.5 M HCl per well were added and incubated for 10 min. After 10 sec shaking, the OD at 595 nm was measured using the Synergy H1 fluorescent plate reader from Biotek.

[2] = target: T1, PCSK9/LDLR PPI (His-tagged PCSK9, recombinant LDLR-AB domain) (Homo sapiens, UniProt Q8NBP7); experiment: In vitro PCSK9-LDLR binding assay (CycLex); conditions: peptide 100 µM; absorbance 450 nm; three independent experiments in duplicate
T1 construct: purchased CycLex Co., Nagano, Japan
T1 sequence (Q8NBP7 153-692): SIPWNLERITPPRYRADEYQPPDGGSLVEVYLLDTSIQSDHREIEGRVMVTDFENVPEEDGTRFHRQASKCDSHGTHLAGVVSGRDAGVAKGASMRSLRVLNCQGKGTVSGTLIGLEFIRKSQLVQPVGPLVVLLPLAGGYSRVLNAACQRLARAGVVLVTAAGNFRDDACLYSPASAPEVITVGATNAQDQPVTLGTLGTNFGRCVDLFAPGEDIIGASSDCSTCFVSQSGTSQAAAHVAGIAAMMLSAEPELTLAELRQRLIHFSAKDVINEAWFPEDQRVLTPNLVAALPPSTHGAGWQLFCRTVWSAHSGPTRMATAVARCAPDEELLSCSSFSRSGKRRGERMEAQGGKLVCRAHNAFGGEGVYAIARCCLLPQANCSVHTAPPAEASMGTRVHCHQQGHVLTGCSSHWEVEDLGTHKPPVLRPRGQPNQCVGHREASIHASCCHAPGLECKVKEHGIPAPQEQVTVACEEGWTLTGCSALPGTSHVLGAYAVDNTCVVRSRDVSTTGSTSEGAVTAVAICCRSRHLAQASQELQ
T1 sequence (Q8NBP7 31-152 partner limits assumed): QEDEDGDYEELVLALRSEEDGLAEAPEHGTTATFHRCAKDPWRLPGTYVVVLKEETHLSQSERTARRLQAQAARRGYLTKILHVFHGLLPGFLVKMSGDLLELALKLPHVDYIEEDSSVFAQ
Procedure: Biochemical experiments, based on a PCSK9-LDLR binding assay, were performed in order to compare the ability of each derivative to impair the PPI between PCSK9 and LDLR. […] Initially, in agreement with recently published conditions[27], a preliminary screening was performed at the fixed concentration of 100 µM.
The absorbance at 450 nm was measured using the Synergy H1 fluorescent plate reader (Biotek, Bad Friedrichshall, Germany).

[3] = system: cell surface LDLR, HepG2 cells; conditions: cited from earlier work
Procedure: It is useful to underline, that in our case the cells were treated with a lower PCSK9 concentration (4 μg/mL) and for a shorter time (2 h) in respect to the conditions applied by Zhang and co-w ... || In a recent study, Zhang and co-workers[18] have developed new antagonists. […] In particular, in presence of PCSK9, Fusion 1 peptid ...

PCSK9/LDLR PPI = conditions: read-out: IC50 of PCSK9/LDLR PPI inhibition; cited from earlier work
From the text: Recently, innovative technological solutions for controlling peptide metabolism and advanced administration strategies[14]–[16] have renewed the interest for novel inhibitory peptides. […] Another study, carried out by us, has identified two peptides able to inhibit the PCSK9/LDLR PPI[11]: they derive from the hydrolysis of lupin protein and have the following sequences, […] (P5) and […] (T9).

[4] = target: T2, recombinant His-tagged PCSK9 protein (proprotein convertase subtilisin/kexin type 9) (UniProt Q8NBP7 31-692); experiment: ELISA; CycLex in vitro PCSK9-LDLR binding assay (colorimetric semi-quantitative solid phase binding assay); wells coated with recombinant LDLR-AB domain; His-tagged PCSK9 added with peptide (1.0-300.0 uM; first screen at 100 uM); bound His-tagged PCSK9 read as absorbance at 450 nm; competition; conditions: both partners purified
T2 construct: Proprotein convertase subtilisin/kexin type 9 (PCSK9), recombinant, of the CycLex kit; the functional rows use this molecule; also called PCSK9-WT
T2 sequence (Q8NBP7 31-692): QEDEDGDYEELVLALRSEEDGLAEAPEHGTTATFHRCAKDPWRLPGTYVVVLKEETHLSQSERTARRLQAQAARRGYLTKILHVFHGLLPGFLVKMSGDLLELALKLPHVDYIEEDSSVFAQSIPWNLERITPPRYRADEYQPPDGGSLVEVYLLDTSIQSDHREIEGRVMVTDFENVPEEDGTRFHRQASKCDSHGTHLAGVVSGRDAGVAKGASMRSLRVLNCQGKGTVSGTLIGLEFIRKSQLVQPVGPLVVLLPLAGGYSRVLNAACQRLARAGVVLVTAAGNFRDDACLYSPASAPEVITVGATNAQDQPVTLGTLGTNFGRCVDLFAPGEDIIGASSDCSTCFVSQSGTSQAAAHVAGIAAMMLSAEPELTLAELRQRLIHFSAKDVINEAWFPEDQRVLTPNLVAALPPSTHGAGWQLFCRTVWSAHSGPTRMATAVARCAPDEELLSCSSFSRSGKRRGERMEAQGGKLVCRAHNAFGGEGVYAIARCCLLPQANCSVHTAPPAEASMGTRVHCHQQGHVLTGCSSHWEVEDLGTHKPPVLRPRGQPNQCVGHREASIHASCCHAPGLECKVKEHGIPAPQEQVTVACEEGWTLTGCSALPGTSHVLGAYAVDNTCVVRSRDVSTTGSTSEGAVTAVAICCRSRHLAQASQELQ

[5] = peptide 0.5 µM + 4.0 µg/mL PCSK9, 2 h
[6] = peptide 1.0 µM + 4.0 µg/mL PCSK9, 2 h
[7] = peptide 0.5 µM + 4 µg/mL PCSK9, 2 h
[8] = peptide 1 µM + 4 µg/mL PCSK9, 2 h

In the case of “Ac-TAFTSWEEYLDWV-NH2 [[V2A]Pep2-8, alanine single-point mutant of Pep2-8, computational only]”, the “Affinity on PCSK9” value (PCSK9) is given as “low affinity”.

For Ac-TVFRSWEEYLDYV-NH2 [[T4R,W12Y]Pep2-8], the “Times more active than Pep2-8 in restoring LDL uptake” value (HepG2 cells) was ~5 fold, the “LDL-uptake restored (versus untreated cells)” value (HepG2 cells; [5]) was 81.6% and the “LDL-uptake restored (versus untreated cells)” value (HepG2 cells; [6]) was 88.0%. The “LDL-uptake restored (versus untreated cells)” value (HepG2 cells; peptide 10.0 µM + 4.0 µg/mL PCSK9, 2 h) was 92.5%, the “LDLR protein level restored (versus control cells)” value [1, 7] was 68.1% and the “LDLR protein level restored (versus control cells)” value [1, 8] was 75.3%. The “LDLR protein level restored (versus control cells)” value ([1]; peptide 10.0 µM + 4 µg/mL PCSK9, 2 h) was 88.3% and the “Impairment of PCSK9-LDLR binding versus control” value [2] was −93.0%.

With Ac-TVFTSWEEALDWV-NH2 [[Y9A]Pep2-8] the “Times more active than Pep2-8 in restoring LDL uptake” value (HepG2 cells) was “about 50 fold”, the “LDL-uptake restored (versus untreated cells)” value (HepG2 cells; [5]) was 83.4% and the “LDL-uptake restored (versus untreated cells)” value (HepG2 cells; [6]) was 99.0%. For the same molecule, the “LDLR protein level restored (versus control cells)” value [1, 7] was 81.9%, the “LDLR protein level restored (versus control cells)” value [1, 8] was 89.9% and the “Impairment of PCSK9-LDLR binding versus control” value [2] was −69.8%.

In the case of “Ac-TVFTSWEEYLDWV-NH 2 [Pep2-8, reference compound]”, the “LDL-uptake restored (versus untreated cells)” value (HepG2 cells; peptide 50 µM + 4.0 µg/mL PCSK9, 2 h) is given as 98.9%, the “LDLR protein level restored (versus control cells)” value ([1]; peptide 50 µM + 4 µg/mL PCSK9, 2 h) is given as 83.36% and 83.4% and the “Surface LDLR levels renewed” value ([3]; FACS, 50 μM peptide, 4 h co-incubation with 15 μg/mL PCSK9, ref Zhang and co-workers) is given as “about 70%”.

For LILPKHSDAD [Peptide P5], the IC50 (PCSK9/LDLR PPI) is given as 1.6 µM.

In the case of “TVFTSWEEYLDWV-GSC- CRLPWNLQRIGLPG [Fusion 1 peptide]”, the “LDLR restored in presence of PCSK9” value ([3]; HepG2 cells, 5.0 µM (tested 0.1 to 5.0 µM)) is listed as 90% and the “Fold more potent than reference peptide Pep2-8 in preventing PCSK9-mediated cell surface LDLR degradation” value ([3]; HepG2 cells) is listed as “about 20 fold”.

B1: [Y9A]Pep2-8 (Ac-TVFTSWEEALDWV-NH2) (peptide)
peptide: Ac-TVFTSWEEALDWV-NH2
notes: analog of Pep2-8 with Y9A, designed by computation; source: synthetic peptide (bought: PRIMM Biotech / GenScript, >95% purity)
For B1, the IC50 [4] was 27.1 µM and the “percent change of PCSK9-LDLR binding at 100 µM peptide versus the control” value [4] was -69.8%.

B2: [T4R,W12Y]Pep2-8 (Ac-TVFRSWEEYLDYV-NH2) (peptide)
peptide: Ac-TVFRSWEEYLDYV-NH2
notes: analog of Pep2-8 with T4R and W12Y, designed by computation; source: synthetic peptide (bought: PRIMM Biotech / GenScript, >95% purity)
With B2 the IC50 [4] was 14.5 µM and the “percent change of PCSK9-LDLR binding at 100 µM peptide versus the control” value [4] was -93%.
